Drawing on patent publication US11787812B2, “Substituted pyrazolo[4,3-d]pyrimidines and imidazo[5,1 -f][1,2,4]triazines as androgen receptor and phosphodiesterase dual inhibitors” (ILDONG PHARMACEUTICAL CO., LTD., priority 2020, dated 2023), this text covers IC50 for twelve compounds.

The structures appear in SMILES notation. Read-outs that look alike come from different tables or passages of the source. Where only a bound is given, the exact number is not on record here.

Usually IC50 stands for the point on the concentration scale where inhibition reaches its midpoint.

Assay [1] addresses human PDE-5A1 (Homo sapiens (Human), UniProt O76074). Kind of assay: Human PDE-5A1 inhibition assay (fluorescence polarization, FAM-cGMP). The class given is biochemical. The note with it: human PDE5A1, 100 nM FAM-cGMP, 60 minutes room temperature. The text has this:
This example illustrates the in vitro inhibition of human PDE-5A1 by exemplary compounds of this disclosure (e.g., as described herein).
Sildenafil citrate (Catalog no. LKT-S3313, Axxora, San Diego, CA), Vardenafil hydrochloride trihydrate (Catalog no. SML2103, Sigma-Aldrich, St. Louis, MO), PDE Assay Buffer (Catalog no. 60393, BPS bioscience, San Diego, CA), PDE Binding Agent (Catalog no. 60390, BPS bioscience, San Diego, CA) and PDE Binding Agent Diluent (cGMP, Catalog no. 60392, BPS bioscience, San Diego, CA) were used for assays. Test compounds were supplied by Ildong Pharmaceuticals Co., Ltd.
The serial dilution of the compounds was first performed in 100% DMSO with the highest concentration at 1 mM and 0.1 mM. Each intermediate compound dilution (in 100% DMSO) will then get directly diluted 10× fold into assay buffer for 10% DMSO and 5 μL of the dilution was added to a 50 μL reaction so that the final concentration of DMSO is 1% in all reactions.
The enzymatic reactions were conducted at room temperature for 60 minutes in a 50 μL mixture containing PDE assay buffer, 100 nM FAM-cGMP, a PDE enzyme (Table 2) and the test compounds.
After enzymatic reaction, 100 μL of a binding solution (1:100 dilution of the binding agent with the binding agent diluent) was added to each reaction and the reaction was performed at room temperature for 60 minutes.
Fluorescence intensity was measured at excitation of 485 nm and an emission of 528 nm using a Tecan Infinite M1000 microplate reader.
PDE activity assays were performed in duplicate at each concentration. Fluorescence intensity is converted to fluorescence polarization using the Tecan Magellan6 software. The fluorescence polarization (FPt) in absence of the compound in each data set was defined as 100% activity. In the absence of PDE and the compound, the value fluorescent polarization (FPb) in each data set was defined as 0% activity. The percent activity in the presence of compound was calculated according to Equation 1:
[formula] where FP=the fluorescence polarization in the presence of the compound.
The values of % activity versus a series of compound concentrations were then plotted using non-linear regression analysis of Sigmoidal dose-response curve generated with Equation 2:
[formula] where Y=percent activity, B=minimum percent activity, T=maximum percent activity, X=logarithm of compound, and Hill Slope=slope factor or Hill coefficient. The IC50 value was determined by the concentration causing a half-maximal percent activity. Results
A general note: In fluorescence polarisation assays a small probe gives low polarisation when free and higher when bound to something large.

Assay [2] concerns the target androgen receptor (AR) (Homo sapiens (Human), UniProt P10275). The assay is described as follows: Androgen receptor (AR) reporter assay, antagonist screen activated by R1881. It is filed as cell-based. The note with it: AR-UAS-bla GripTite 293 cells, antagonist mode, R1881 at EC80. Here is the method: The protocols and results of this Example were carried out and obtained by Thermofisher Scientific.
Test compounds were received at 1000× (or greater) of the desired starting concentration in 100% DMSO. If compounds were supplied at greater that 1000× concentration, an initial dilution is made in 100% DMSO to bring the compounds to 1000× concentration. The 1000× test compounds were serially diluted (10 point ½-log increments) in 100% DMSO.
The Substrate Loading Solution consists of three Life Technologies reagents: Solution A (10 mM LiveBLAzer™-FRET B/G Substrate), Solution B and Solution C.
Androgen Receptor (AR)—Antagonist Screen, Activated by R1881
AR-UAS-bla GripTite™ 293 cells were thawed and resuspended in Assay Media (DMEM phenol red free, 2% CD-treated FBS, 0.1 mM NEAA, 1 mM Sodium Pyruvate, 100 U/mL/100 μg/mL Pen/Strep) to a concentration of 312,500 cells/mL. 4 μL of a 10× serial dilution of Cyproterone Acetate (control antagonist starting concentration, 3,160 nM) or compounds are added to appropriate wells of a Poly-D-Lysine assay plate. 32 μL of cell suspension was added to the wells and pre-incubated at 37° C./5% CO2 in a humidified incubator with compounds and control antagonist titration for 30 minutes. 4 μL of 10× control agonist R1881 at the pre-determined EC80 concentration was added to wells containing the control antagonist or compounds. The plate was incubated for 16-24 hours at 37° C./5% CO2 in a humidified incubator. 8 μL of 1 μM Substrate Loading Solution is added to each well and the plate was incubated for 2 hours at room temperature. The plate was read on a fluorescence plate reader (Tecan Safire^2).
(In general: A reporter such as luciferase makes a cellular process visible.)

The target of assay [3] is Human androgen receptors (Homo sapiens (Human), UniProt P10275, T878A). Kind of assay: Androgen receptor (AR) radioligand binding assay. Here is the method: Methods employed in this study have been adapted from the following literature procedure.
Human androgen receptors, sequence (P10275 whole entry T878A): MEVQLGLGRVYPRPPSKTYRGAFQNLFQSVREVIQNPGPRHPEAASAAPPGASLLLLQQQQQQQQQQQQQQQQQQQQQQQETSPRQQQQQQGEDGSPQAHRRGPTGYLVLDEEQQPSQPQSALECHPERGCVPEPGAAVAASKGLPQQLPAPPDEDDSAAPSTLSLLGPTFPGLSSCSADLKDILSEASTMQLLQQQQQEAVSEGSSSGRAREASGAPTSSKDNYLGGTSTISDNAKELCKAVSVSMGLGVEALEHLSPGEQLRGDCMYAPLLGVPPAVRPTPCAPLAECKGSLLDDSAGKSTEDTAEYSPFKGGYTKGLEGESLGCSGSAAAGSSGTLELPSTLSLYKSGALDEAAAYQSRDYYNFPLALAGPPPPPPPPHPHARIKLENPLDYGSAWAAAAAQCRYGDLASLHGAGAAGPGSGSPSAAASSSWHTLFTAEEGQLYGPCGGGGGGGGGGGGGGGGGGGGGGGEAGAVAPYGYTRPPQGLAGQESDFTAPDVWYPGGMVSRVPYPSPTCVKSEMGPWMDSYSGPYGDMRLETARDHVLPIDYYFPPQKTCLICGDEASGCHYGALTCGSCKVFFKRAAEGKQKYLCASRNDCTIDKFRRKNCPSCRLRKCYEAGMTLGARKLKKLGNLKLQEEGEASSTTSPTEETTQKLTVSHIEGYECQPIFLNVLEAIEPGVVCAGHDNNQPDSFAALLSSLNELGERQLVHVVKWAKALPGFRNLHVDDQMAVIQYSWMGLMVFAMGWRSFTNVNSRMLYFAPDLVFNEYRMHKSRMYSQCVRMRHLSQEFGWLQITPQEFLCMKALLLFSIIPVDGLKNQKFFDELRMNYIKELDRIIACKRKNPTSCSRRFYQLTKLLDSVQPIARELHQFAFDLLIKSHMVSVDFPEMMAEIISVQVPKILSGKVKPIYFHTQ
Human androgen receptors obtained from human LNCaP cells are used in modified HEPES buffer pH 7.4. […] Non-specific binding is estimated in the presence of 1 μM testosterone. […] (See, e.g., Traish, A. M et al., Binding of 7α, 17α-dimethyl-19-nortestosterone (Mibolerone) to androgen and progesterone receptors in human and animal tissues. Endocrinology. 118(4): 1327-1333, 1986).
Compounds are screened at 10 μM.
Where presented, IC50 values were determined by a non-linear, least squares regression analysis using MathIQ™ (ID Business Solutions Ltd., UK).

The mark [4] stands for this setting: receptors from human LNCaP cells, 0.5 nM [3H]Methyltrienolone, 20 hours at 4° C., read-out: AR IC50.

androgen receptor (AR), sequence (P10275 other isoform, or with tags, fused parts or gaps): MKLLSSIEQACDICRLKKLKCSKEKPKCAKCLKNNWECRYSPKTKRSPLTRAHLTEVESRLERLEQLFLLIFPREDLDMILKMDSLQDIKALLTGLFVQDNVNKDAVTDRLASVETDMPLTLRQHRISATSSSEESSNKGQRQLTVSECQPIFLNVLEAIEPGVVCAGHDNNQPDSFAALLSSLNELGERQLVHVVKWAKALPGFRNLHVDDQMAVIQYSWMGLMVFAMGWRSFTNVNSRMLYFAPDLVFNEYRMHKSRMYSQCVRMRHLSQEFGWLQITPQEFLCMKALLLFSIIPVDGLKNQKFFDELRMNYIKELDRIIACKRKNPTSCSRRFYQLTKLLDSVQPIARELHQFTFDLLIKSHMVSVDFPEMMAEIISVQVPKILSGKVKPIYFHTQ

Take `CCCc1nn(C)c2c(=O)[nH]c(-c3cc(N4C(=S)N(c5ccc(C#N)c(C(F)(F)F)c5)C(=O)C4(C)C)ccc3OCC)nc12` [Compound 13, 4-(3-(4-ethoxy-3-(1-methyl-7-oxo-3-propyl-6,7-dihydro-1H-pyrazolo[4,3-d]pyrimidin-5-yl)phenyl)-4,4-dimethyl-5-oxo-2-thioxoimidazolidin-1-yl)-2-(Influoromethyl)benzonilrile]: the IC50 in assay [1] was greater than 100 nM; in assay [2], 500 to 1000 nM; in assay [3] (setting [4]), greater than 200 nM.
For the compound `CCCc1nc(C)c2c(=O)[nH]c(-c3cc(N4C(=S)N(c5ccc(C#N)c(C(F)(F)F)c5)C(=O)C4(C)C)ccc3OCC)nn12` [Compound 18, 4-(3-(4-ethoxy-3-(5-methyl-4-oxo-7-propyl-3,4-dihydroimidazo[5,1-f][1,2,4]triazin-2-yl)phenyl)-4,4-dimethyl-5-oxo-2-thioxoimidazolidin-1-yl)-2-(trifluoromethyl)benzonitrile], the values for the IC50 in assay [1], in assay [2] and in assay [3] (setting [4]) were no more than 10 nM, no more than 500 nM and less than 50 nM, respectively.
Regarding `CCCc1nn(C)c2c(=O)[nH]c(-c3cc(N4C(=S)N(c5cnc(C#N)c(C(F)(F)F)c5)C(=O)C4(C)C)ccc3OCC)nc12` [Compound 19, 5-(3-(4-ethoxy-3-(1-methyl-7-oxo-3-propyl-6,7-dihydro-1H-pyrazolo[4,3-d]pyrimidin-5-yl)phenyl)-4,4-dimethyl-5-oxo-2-thioxoimidazolidin-1-yl)-3-(trifluoromethyl)picolinonitrile], the values for the IC50 in assay [1], in assay [2] and in assay [3] (setting [4]) were greater than 100 nM, 500 to 1000 nM and greater than 200 nM, respectively.
As for `CCCc1nc(C)c2c(=O)[nH]c(-c3cc(N4C(=S)N(c5cnc(C#N)c(C(F)(F)F)c5)C(=O)C4(C)C)ccc3OCC)nn12` [Compound 20, 5-(3-(4-ethoxy-3-(5-methyl-4-oxo-7-propyl-3,4-dihydroimidazo[5,1-f][1,2,4]triazin-2-yl)phenyl)-4,4-dimethyl-5-oxo-2-thioxoimidazolidin-1-yl)-3-(trifluoromethyl)picolinonitrile], the IC50 in assay [1] is no more than 10 nM; in assay [2], no more than 500 nM; in assay [3] (read-out: AR IC50) it was 50 to 200 nM.
Take `CCCc1nn(C)c2c(=O)[nH]c(-c3cc(N4C(=S)N(c5ccc(C#N)c(C(F)(F)F)c5)C(=O)C45CCC5)ccc3OCC)nc12` [Compound 21, 4-(5-(4-ethoxy-3-(1-methyl-7-oxo-3-propyl-6,7-dihydro-1H-pyrazolo[4,3-d]pyrimidin-5-yl)phenyl)-8-oxo-6-thioxo-5,7-diazaspiro[3.4]octan-7-yl)-2-(trifluoromethyl)benzonitrile]: the IC50 in assay [1] is greater than 100 nM; in assay [2] it was no more than 500 nM; in assay [3] (setting [4]), greater than 200 nM.
On to `CCCc1nc(C)c2c(=O)[nH]c(-c3cc(N4C(=S)N(c5ccc(C#N)c(C(F)(F)F)c5)C(=O)C45CCC5)ccc3OCC)nn12` [Compound 22, 4-(5-(4-ethoxy-3-(5-methyl-4-oxo-7-propyl-3,4-dihydroimidazo[5,1-f][1,2,4]triazin-2-yl)phenyl)-8-oxo-6-thioxo-5,7-diazaspiro[3.4]octan-7-yl)-2-(trifluoromethyl)benzonitrile], for which the results for the IC50 in assay [1], in assay [2] and in assay [3] were no more than 10 nM, no more than 500 nM and 50 to 200 nM, respectively.
Turning to `CCCc1nn(C)c2c(=O)[nH]c(-c3cc(N4C(=S)N(c5cnc(C#N)c(C(F)(F)F)c5)C(=O)C45CCC5)ccc3OCC)nc12` [Compound 23, 5-(5-(4-ethoxy-3-(1-methyl-7-oxo-3-propyl-6,7-dihydro-1H-pyrazolo[4,3-d]pyrimidin-5-yl)phenyl)-8-oxo-6-thioxo-5,7-diazaspiro[3.4]octan-7-yl)-3-(trifluoromethyl)picolinonitrile], the IC50 in assay [1] is greater than 100 nM; in assay [2], no more than 500 nM; in assay [3] (setting [4]), greater than 200 nM.
For `CCCc1nc(C)c2c(=O)[nH]c(-c3cc(N4C(=S)N(c5ccc(C#N)c(C(F)(F)F)c5)C(=O)C4C)ccc3OCC)nn12` (stereo not drawn) [Compound 26, 4-(3-(4-ethoxy-3-(5-methyl-4-oxo-7-propyl-3,4-dihydroimidazo[5,1-f][1,2,4]triazin-2-yl)phenyl)-4-methyl-5-oxo-2-thioxoimidazolidin-1-yl)-2-(trifluoromethyl)benzonitrile], in that order: no more than 10 nM, greater than 100 nM and greater than 200 nM.
`CCCc1nc(C)c2c(=O)[nH]c(-c3cc(S(=O)(=O)NC4CN(c5ccc(C#N)c(C(F)(F)F)c5)C4)ccc3OCC)nn12` [Compound 29, N-(1-(4-cyano-3-(trifluoromethyl)phenyl)azetidin-3-yl)-4-ethoxy-3-(5-methyl-4-oxo-7-propyl-3,4-dihydroimidazo[5,1-f][1,2,4]triazin-2-yl)benzenesulfonamide]: the IC50 in assay [1] was no more than 10 nM; in assay [2], 500 to 1000 nM; in assay [3], 50 to 200 nM.
Take `CCCc1nc(C)c2c(=O)[nH]c(-c3cc(S(=O)(=O)NC4CCN(c5ccc(C#N)c(C(F)(F)F)c5)CC4)ccc3OCC)nn12` [Compound 30, N-(1-(4-cyano-3-(trifluoromethyl)phenyl)piperidin-4-yl)-4-ethoxy-3-(5-methyl-4-oxo-7-propyl-3,4-dihydroimidazo[5,1-f][1,2,4]triazin-2-yl)benzenesulfonamide]: the figures for the IC50 in assay [1], in assay [2] and in assay [3] (setting [4]) were no more than 10 nM, no more than 500 nM and less than 50 nM, respectively.
In the case of `CCCc1nc(C)c2c(=O)[nH]c(-c3cc(S(=O)(=O)NC4CCN(c5ccc(C#N)c(C(F)(F)F)c5)C4)ccc3OCC)nn12` (stereo not drawn) [Compound 31, N-(1-(4-cyano-3-(trifluoromethyl)phenyl)pyrrolidin-3-yl)-4-ethoxy-3-(5-methyl-4-oxo-7-propyl-3,4-dihydroimidazo[5,1-f][1,2,4]triazin-2-yl)benzenesulfonamide], the IC50 in assay [1] was no more than 10 nM; in assay [2], 500 to 1000 nM; in assay [3], 50 to 200 nM.
In the case of `CCCc1nc(C)c2c(=O)[nH]c(-c3cc(S(=O)(=O)NC4CCN(c5ccc(C#N)c(C(F)(F)F)c5)C4=O)ccc3OCC)nn12` (stereo not drawn) [Compound 32, N-(1-(4-cyano-3-(trifluoromethyl)phenyl)-2-oxopyrrolidin-3-yl)-4-ethoxy-3-(5-methyl-4-oxo-7-propyl-3,4-dihydroimidazo[5,1-f][1,2,4]triazin-2-yl)benzenesulfonamide], the 50% inhibitory concentration (IC50) in assay [1] is no more than 10 nM; in assay [2] it was greater than 100 nM; in assay [3] (setting [4]), greater than 200 nM.
